# Measurements taken from paper PMC6778861, “Radiosynthesis and Preclinical Evaluation of ^11C-VA426, a Cyclooxygenase-2 Selective Ligand” (Contrast Media & Molecular Imaging, 2019).
# Tests used:
# COX-2 [1] = test system: COX-2; design: method as in PMID 18598017; conditions: in vitro; cited from earlier work
# [2] = design: method as in PMID 18598017; conditions: previous study; cited from earlier work
# COX-2 [3] = target: T1, COX-2 (Mus musculus, UniProt Q05769); assay: PET kinetic study in healthy mice; format: in vivo, CD-1 mice
# T1 construct: from tissue; host or cells: organs of living mice (PET in healthy CD-1 mice)
# T1 sequence (Q05769 18-604): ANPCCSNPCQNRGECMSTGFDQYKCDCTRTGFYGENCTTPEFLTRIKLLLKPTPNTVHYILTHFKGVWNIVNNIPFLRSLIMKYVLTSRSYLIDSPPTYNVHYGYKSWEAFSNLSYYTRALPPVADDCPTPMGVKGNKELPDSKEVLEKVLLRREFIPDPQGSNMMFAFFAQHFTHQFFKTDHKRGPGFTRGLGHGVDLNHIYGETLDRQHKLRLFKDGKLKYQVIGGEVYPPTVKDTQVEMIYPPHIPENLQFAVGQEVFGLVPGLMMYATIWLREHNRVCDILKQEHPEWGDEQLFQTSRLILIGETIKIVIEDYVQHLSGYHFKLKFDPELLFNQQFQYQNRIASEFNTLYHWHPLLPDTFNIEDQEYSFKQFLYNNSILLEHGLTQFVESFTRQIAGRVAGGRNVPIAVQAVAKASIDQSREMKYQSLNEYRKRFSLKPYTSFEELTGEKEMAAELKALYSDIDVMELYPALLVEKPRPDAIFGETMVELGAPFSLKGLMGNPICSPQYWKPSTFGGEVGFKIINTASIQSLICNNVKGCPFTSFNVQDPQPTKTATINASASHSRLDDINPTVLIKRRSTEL
# Method: Two CD-1 mice were anaesthetized with a mixture of 4% isoflurane in air for the imaging with the YAP-(S)PET system (ISE Srl). Each mouse was placed in a prone position on the PET scanner bed with the abdomen centred in the field of view (FOV). Five minutes before the intravenous injection of ^11C-VA426, one mouse was pretreated with the COX-2 specific inhibitor celecoxib (10 mg/kg, i.v.) in vehicle (100 μl of DMSO, mouse 1) and the other with vehicle alone (mouse 2). Mouse 1 was then injected intravenously with 1.85 MBq of ^11C-VA426 and mouse 2 with 3.7 MBq, and dynamic PET data were acquired for 30 minutes, according to the following schedule: four scans of 2.5 minutes followed by four of 5 minutes. PET data were acquired in list mode, using the full axial acceptance angle of the scanner (3D mode) and then reconstructed with the expectation maximization (EM) algorithm. All images were calibrated with a dedicated phantom, corrected for the radionuclide half-life decay, and quantified as ID/g.
# [4] = Ex vivo biodistribution kinetic profile in healthy mice; design: species or system CD-1 mice; conditions: i.v.
# Method: Male CD-1 mice were injected through the tail vein with 5.3 ± 1.4 MBq of ^11C-VA426 and sacrificed after 10, 30, and 60 minutes (n = 3 per time point) under general anaesthesia with a mixture of 4% isoflurane in air. Blood was collected by retro-orbital sampling immediately before sacrifice. Plasma was separated by centrifugation, and 100 μL of blood and plasma were counted in a γ-counter (LKB Compugamma CS 1282). Different peripheral organs (heart, lung, liver, intestine, stomach, spleen, kidney, testis, and muscle) and brain regions (cortex, striatum, hippocampus, thalamus, hypothalamus, pons, substantia nigra, and cerebellum) were immediately sampled, rinsed with cold saline, and placed in preweighed tubes for counting. Radioactivity concentration was calculated as %ID/g.
# COX-2 [5] = target: T2, COX-2 (Rattus norvegicus, UniProt P35355); assay: Biodistribution kinetic profile in brain inflammation (intrastriatal LPS) rat model; format: in vivo, Sprague Dawley rats; conditions: rats
# T2 construct: from tissue; host or cells: peripheral organs and brain regions of Sprague Dawley rats (in vivo / ex vivo biodistribution)
# T2 sequence (P35355 18-604): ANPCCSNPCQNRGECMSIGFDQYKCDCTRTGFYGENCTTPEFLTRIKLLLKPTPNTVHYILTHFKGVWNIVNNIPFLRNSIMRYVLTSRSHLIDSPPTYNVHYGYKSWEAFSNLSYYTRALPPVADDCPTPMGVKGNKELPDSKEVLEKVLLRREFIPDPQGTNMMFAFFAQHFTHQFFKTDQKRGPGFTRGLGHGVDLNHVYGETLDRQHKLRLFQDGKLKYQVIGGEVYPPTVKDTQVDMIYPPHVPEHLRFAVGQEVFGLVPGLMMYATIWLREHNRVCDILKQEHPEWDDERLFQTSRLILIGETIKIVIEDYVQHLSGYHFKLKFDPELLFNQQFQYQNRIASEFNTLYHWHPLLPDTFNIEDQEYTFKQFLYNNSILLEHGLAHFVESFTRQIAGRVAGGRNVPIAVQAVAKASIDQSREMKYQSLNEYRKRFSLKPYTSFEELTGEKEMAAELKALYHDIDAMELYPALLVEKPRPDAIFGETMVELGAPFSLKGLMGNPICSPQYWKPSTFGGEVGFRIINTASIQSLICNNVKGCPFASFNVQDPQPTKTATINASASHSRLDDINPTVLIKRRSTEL
# Method: In order to trigger nigrostriatal inflammation, eighteen SD rats were anesthetized (zoletil, 25 mg/kg, i.p.) and stereotaxically injected into the right striatum with 3 μL (3.33 μg/μl) of lipopolysaccharide (LPS, Sigma-Aldrich, Italy) and in the contralateral hemisphere with saline (negative control) at the following coordinates: A = +0.5, L = ±3.0, and V = –5.0 mm. One day after LPS injection, the first experimental group (n = 9) was injected through the tail vein with 9.25 ± 2.2 MBq of ^11C-VA426, and three rats per time point (10, 30, and 60 minutes) were euthanized under general anaesthesia, with a mixture of 4% isoflurane in air. Central and peripheral samples were dissected as described above and counted, following the protocol described for the biodistribution kinetic study. Twelve days after LPS injection, the second group of animals (n = 9) underwent the same protocol. Radioactivity concentration in samples was calculated as %ID/g.
# [6] = Ex vivo biodistribution kinetic profile in healthy rats; design: species or system Sprague Dawley rats
# Method: Nine SD rats were injected through the tail vein with 9.25 ± 2.5 MBq of ^11C-VA426 and euthanized under general anaesthesia, with a mixture of 4% isoflurane in air, at different time points (10, 30, and 60 minutes) from injection (n = 3 per time). Blood was collected by retro-orbital sampling immediately before the sacrifice. Plasma was separated by centrifugation, and 100 μL of blood and plasma were counted in a γ-counter (LKB Compugamma CS 1282). Peripheral organs (heart, lung, liver, intestine, kidney, testis, and muscle) and brain regions (frontal, right and left cortex, right and left striatum, hippocampus, thalamus, hypothalamus, pons, and cerebellum) were immediately removed and rinsed in cold saline solution. Each sample was then placed in a test tube and weighed, and the radioactivity was measured using a γ-counter (LKB Compugamma CS 1282). An additional aliquot (0.1 mL) of radioactive solution was diluted to 1 : 10, 1 : 100, and 1 : 1000 and used to calculate the standard curve. Radioactivity concentration was calculated as the percentage of injected dose per gram of tissue (%ID/g).
# [7] = In vivo stability / radiometabolite analysis in healthy mice (HPLC); conditions: 10 minutes after injection
# Method: Mice (n = 3) were injected through the tail vein with 3 ± 0.9 MBq of ^11C-VA426 and sacrificed 10 minutes later, under general anaesthesia. Blood was collected by retro-orbital sampling and processed to obtain plasma, as described above. Radioactive species contained in plasma were extracted by mixing an aliquot (500 μL) of plasma with CH3CN solution (1 : 1 v/v). Acetonitrile extracts were centrifuged and supernatant filtered with a MillexGX® syringe system for HPLC (Gilson Italia Srl, 321 pump, UV/VIS-151) injection. For metabolites analysis in liver, a sample was placed in a tissue homogenizer (Potter-Elvehjem) with 2 mL of saline, mechanically sheared until complete homogenization and subsequently treated as described for plasma. HPLC analyses were performed at room temperature using a C18, 250 × 10 mm, 5 μm column, CH3CN/AcONH4 0.05 M (60/40, v/v) as mobile phase, a flow rate of 4.5 mL/min, and UV = 254 nm. Eluted fractions were collected every 30 seconds, for a total of 14 minutes, and counted with a γ-counter (LKB Compugamma CS 1282).
# COX-2 [8] = target: T2, COX-2; assay: Specificity (celecoxib competition) study in healthy rats; format: in vivo, Sprague Dawley rats; conditions: 30 min p.i.
# Method: In order to evaluate the radiotracer binding specificity to COX-2 in healthy rats, a competition study was performed. Two minutes before the intravenous injection of ^11C-VA426, four animals were pretreated with the COX-2 specific inhibitor celecoxib (Sigma-Aldrich, Italy) (10 mg/kg, i.v.) and four animals with vehicle solution alone (100 μl of DMSO, Sigma-Aldrich). All rats were then injected intravenously with 9.25 ± 2.7 MBq of ^11C-VA426 and sacrificed at the time of maximum uptake (30 minutes p.i.), previously assessed in the kinetic study. Central and peripheral samples were dissected as described above and counted, following the same protocol used for the biodistribution kinetic study. Radioactivity concentration in samples was calculated as %ID/g.
# COX-2 [9] = target: T1, COX-2; assay: Specificity evaluation in peripheral inflammation (i.p. LPS) mouse model; format: in vivo; conditions: LPS-treated mice, celecoxib 10 mg/kg i.v., 10 minutes p.i.
# Method: Specificity evaluation studies of ^11C-VA426 were performed on a murine model of peripheral inflammation, after COX-2 specific inhibitor administration. Six hours before the study, six mice received intraperitoneal injection of lipopolysaccharide (10 mg/Kg), in order to promote peripheral inflammation response. Three of the LPS-treated mice were injected i.v. with 10 mg/kg of celecoxib, five minutes before the ^11C-VA426 injection, to carry out a competition assay for the COX-2 binding sites. All mice were sacrificed at the time of maximum uptake (10 minutes p.i.), previously assessed in healthy mice, after 3.9 ± 1.1 MBq injection of the radiotracer. Peripheral samples were dissected and counted, as well as for biodistribution studies. Radioactivity concentration in samples was calculated as %ID/g.
# [10] = celecoxib 10 mg/kg i.v. vs vehicle
compound,measurement,setting,value
"COCCc1cc(-c2ccc(S(C)(=O)=O)cc2)n(-c2ccc(F)cc2)c1C [VA426, 1-(4-fluorophenyl)-3-(2-methoxyethyl)-2-methyl-5-(4-(methylsulfonyl)phenyl)-1H-pyrrole]",IC50,COX-2 [1],18 nM
same,Selectivity Index (IC50 COX-1/IC50 COX-2),COX-2 [1],> 5555
same,toxic effects,[2],without toxic effects
Cc1c(CCO[11CH3])cc(-c2ccc(S(C)(=O)=O)cc2)n1-c1ccc(F)cc1 [^11C-VA426],PET radioactivity distribution,"COX-2 [3]; healthy mice, 0 to 30 minutes after injection",accumulates rapidly and primarily in the liver and kidneys
same,effect of celecoxib pretreatment on PET radioactivity distribution,"COX-2 [3]; healthy mouse, celecoxib 10 mg/kg i.v., 10 and 30 minutes",slightly reduced radioactivity distribution in intestine regions
same,time of maximum radioactivity concentration in all brain regions,[4],10 minutes after tracer injection
same,time of maximum uptake in liver,[4],10 minutes after injection
same,maximum radioactivity concentration in pons,[4]; 10 minutes after injection,2.69 ± 0.81 %ID/g
same,maximum uptake in liver,[4]; 10 minutes after injection,7.72 ± 2.52 %ID/g
same,"difference of concentration in striatum, lesioned hemisphere vs contralateral PBS-injected control","COX-2 [5]; one day after LPS, 10, 30 and 60 minutes",no significant differences
same,tracer uptake in contralateral healthy cortex,"COX-2 [5]; one day after intrastriatal LPS, 60 min p.i.",0.087 ± 0.012 %ID/g
same,"difference between LPS-treated and healthy contralateral hemisphere, all regions",COX-2 [5]; twelve days after LPS injection,no differences were found
same,penetration through the BBB,[6]; brain distribution data,good radioactivity penetration through the BBB
same,time of highest radioactivity concentration in brain,[6]; i.v.,10 min p.i.
same,radioactivity uptake in liver,"[6]; i.v., 30 min p.i., n = 3",0.81 ± 0.28 %ID/g
same,"first radioactive metabolite, fraction of total radioactivity in liver",[7]; healthy mice,39.8%
same,"parent compound, fraction of total activity in liver",[7]; healthy mice,34.9%
same,"parent compound, fraction of total activity in plasma",[7]; healthy mice,47.1%
same,"radioactive metabolite (retention time 3 min), fraction of total radioactivity in plasma",[7]; healthy mice,45.1%
same,"radioactive metabolite (retention time 5 min), fraction of total radioactivity in plasma",[7]; healthy mice,6.6%
same,"second radioactive metabolite, fraction of total radioactivity in liver",[7]; healthy mice,21.6%
same,"third radioactive metabolite (11.5 min of retention time), fraction of total radioactivity in liver",[7]; healthy mice,3.3%
same,radioactivity due to radioactive metabolites,[7]; plasma and liver,over 50%
same,change of uptake in intestine after celecoxib pretreatment,COX-2 [8]; [10],−39%
same,change of uptake in kidney after celecoxib pretreatment,COX-2 [8]; [10],−36%
same,change of uptake in liver after celecoxib pretreatment,COX-2 [8]; [10],−65%
same,difference of uptake between vehicle and celecoxib pretreated rats,COX-2 [8]; peripheral tissues and central areas,no significant differences
same,effect of celecoxib on tracer uptake (%ID/g) in all peripheral regions including plasma,COX-2 [9],dramatic reduction in tracer uptake
